Results published in patent EP0374249A1, “METHOD OF STERILIZING PLANT POLLEN” (VSESOJUZNY NAUCHNO-ISSLEDOVATELSKY INST. SELSKOKHOZYAISTV. …, priority 1988, dated 1989).

Tests used:
[1] = test system: Winterweizens Sorte Bezostaya 1; assay: Field test of pollen sterilisation, winter wheat Bezostaya 1; type: in vivo, Winterweizen; details: 2% aqueous emulsion, 16 kg/ha; for Prozentsatz der Sterilität / Anzahl von Körnern der Ähre bei freier Bestäubung / Anzahl von Körnern der Ähre im Isolator: period V of organogenesis; for Anzahl von Körnern der Ähre bei freier Bestäubung: free pollination; for Anzahl von Körnern der Ähre im Isolator: isolated ears; for Prozentsatz des Ansetzens von Körnern bei breier Bestäubung: period V, non-isolated control ears = 100%
Source text: Pflanzen des Winterweizens Sorte Bezostaya 1 werden in der V. Periode der Organogenese durch Zerstäubung einer 2%igen wässrigen Emulsion von N-(2-Dimethylaminoäthyl)-maleaminsäure, N-(3-Dimethylaminopropyl)-maleaminsäure, N-Äthylmaleaminsäure, N-(2-Hydroxyäthyl)-maleaminsäure, N-Karbamoylmaleaminsäure mit Hilfe deiner Rückspritze behandelt. Die Emulsion enthält 0,1 Masse% Kalziumalkylbenzolsulfonat mit 12 bis 14 Kohlenstoffatomen. Als Adjuvans führt man in die Emulsion 0,01 Masse% Tetrahydrofuran ein.
Der Verbrauch an Präparat beträgt 16 kg/ha. Als Kontrolle dienen Pflanzen, behandelt mit einem Verdünner ohne Sterilisationsmitteln.

[2] = test system: diploidem Roggen Sorte Chulpan; assay: Field test of pollen sterilisation, diploid rye Chulpan; type: in vivo; details: 1% aqueous emulsion, 8 kg/ha; for Prozentsatz der Sterilität / Anzahl von Körnern der Ähre bei freier Bestäubung / Anzahl von Körnern der Ähre im Isolator: period V of organogenesis; for Anzahl von Körnern der Ähre bei freier Bestäubung: free pollination; for Anzahl von Körnern der Ähre im Isolator: isolated ears; for Prozentsatz des Ansetzens von Körnern bei freier Bestäubung: period V, non-isolated control ears = 100%
Source text: (§7) Mit dem Ahrenschiebe verwirklicht man die Isolierung von Hauptähren und anderen Stockwerken in Pergamentbeuteln. […] Bei Roggen schliesst man je Ähre 5 bis 7 verschiedene nebeneinander befindliche Pflanzen unter einen gemeinsamen Isolator ein. […] Der Sterilitätsprozentsatz (X) für Weizen, Roggen, Tritikale und Hirse wird nach folgender Formel [formula] ermittelt.
Die Emulsion enthält 0,01 Masse% Tetranydrofuran und 0,1 Masse% Kalziumalkylbenzolsulfonat mit 12 bis 14 Kohlenstoffatomen. Der Verbrauch an Präparat beträgt 8 kg/ha. Als Kontrolle dienen Pflanzen, behandelt mit einem Verdünner ohne Sterilisationsmittel.

[3] = test system: Sommerweizens Sorte Botanicheskaya 4; assay: Field test of pollen sterilisation, spring wheat Botanicheskaya 4; type: in vivo, Sommerweizen; details: 1% aqueous emulsion, 6 kg/ha; for Prozentsatz der Sterilität / Anzahl von Körnern der Ähre bei freier Bestäubung / Anzahl von Körnern der Ähre im Isolator: period V of organogenesis; for Anzahl von Körnern der Ähre bei freier Bestäubung: free pollination; for Anzahl von Körnern der Ähre im Isolator: isolated ears; for Prozentsatz des Ansetzens von Körnern bei freier Bestäubung: period V, non-isolated control ears = 100%
Source text: Pflanzen des Sommerweizens Sorte Botanicheskaya 4 werden in der V. Periode der Organogenese (nach Kupermann) mit einer 1%igen Wässrigen Emulsion von N-(2-Dimethyl-aminoäthyl)-maleaminsäure, N-(3-Dimethylaminopropyl)-maleaminsäure, N-Äthylmaleaminsäure, N-(2-Hydroxyäthyl)-maleaminsäure bzw. N-Karbamoylmaleaminsäure behandelt. Die Emulsion enthält 0,5 Masse% Kalziumalkylbenzolsulfonat mit 12 bis 14 Kohlenstoffatomen und 0,01 Masse% Dimethylsulfoxid als Adjuvans. Der Verbrauch an Präparat beträgt 6 kg/ha. Als Kontrolle dienen Pflanzen, behandelt mit einem Verdünner ohne Sterilisationsmittel.

[4] = test system: Hirse Sorte Mironovskoe 94; assay: Field test of pollen sterilisation, millet Mironovskoe 94; type: in vivo; details: 1% aqueous emulsion, 8 kg/ha; for Prozentsatz der Sterilität / Anzahl von Körnern der Rispe bei freier Bestäubung / Anzahl von Körnern der Rispe im Isolator: period V of organogenesis; for Anzahl von Körnern der Rispe bei freier Bestäubung: free pollination; for Anzahl von Körnern der Rispe im Isolator: isolated panicles; for Prozentsatz des Ansetzens von Körnern bei freier Bestäubung: period V, non-isolated control = 100%
Source text: (§1) Die gametozide Aktivität der erfindungsgemässen Sterilisationsmittel war im Feldversuch in verschiedenen Bodenklimatischen Zonen mit Teilstücken von 10 m^2 Grösse in drei- bis viermaliger Wiederholung nachgewiesen. Jedes Sterilisationsmittel wurde mindestens 5 Jahre lang geprüft.
(§2) Die Entwicklung der Perioden der Organogenese wird zytologischüberwacht. Die Behandlung von Pflanzen mit dem Sterilisationsmittel erfolgt am Anfang der fünften Periode der Organogenese nach Kupermann.
(§3) Mit dem Ahrenschiebe verwirklicht man die Isolierung von Hauptähren und anderen Stockwerken in Pergamentbeuteln. Bei Weizen und Tritikale werden Einzelisolatoren verwendet. Bei Roggen schliesst man je Ähre 5 bis 7 verschiedene nebeneinander befindliche Pflanzen unter einen gemeinsamen Isolator ein. Bei Hirse wird jede Rispe getrennt isoliert. Der Sterilitätsprozentsatz (X) für Weizen, Roggen, Tritikale und Hirse wird nach folgender Formel [formula] ermittelt.
(§4) Die Kornzahl in nicht isolierten ähren von Kontrollpflanzen wird bedingt für 100% Ansetzen bei freier Bestäubung angenommen.
(§5) Um zuverlässige Angaben zu erhalten, verwendet man 20 bis 25 Isolatoren jeder Wiederholung für Weisen und Tritikale, 10 bis 15 Gruppenisolatoren jeder Wiederholung für Roggen und Hirse.
Pflanzen der Hirse Sorte Mironovskoe 94 werden in der V. Periode der Organogenese (nach Kupermann) mit einer 1%igen wässrigen Emulsion von N-(2-Dimethylaminoäthyl)maleaminsäure, N-(3-Dimethylaminopropyl)maleaminsäure, N-Äthylmaleaminsäure, N-(2-Hydroxyäthyl)maleaminsäure, N-Karbamoylmaleaminsäure behandelt. Die Emulsion enthält 0,01 Masse% Dimethylaulfoxid und 0,1 Masse% Kalziumalkylbenzolsulfonat mit 12 bis 14 Kohlenstoffatomen. Der Verbrauch an Präparat beträgt 8 kg/ha. Als Kontrolle dienen Pflanzen, behandelt mit einem Verdünner ohne Sterilisationsmittel. Die Prüfergebnisse sind in der Tabelle 12 dargestellt. […] Periode der Organogenese erhalten.

[5] = test system: diploidem Roggen Sorte Talovskaya 12; assay: Field test of pollen sterilisation, diploid rye Talovskaya 12; type: in vivo; details: 1% aqueous emulsion, 6 kg/ha; for Prozentsatz der Sterilität / Anzahl von Körnern der Ähre bei freier Bestäubung / Anzahl von Körnern der Ähre im Isolator: period V of organogenesis; for Anzahl von Körnern der Ähre bei freier Bestäubung: free pollination; for Anzahl von Körnern der Ähre im Isolator: isolated ears; for Prozentsatz des Ansetzens von Körnern bei freier Bestäubung: period V, non-isolated control ears = 100%
Source text: as §7
Pflanzen von diploidem Roggen Sorte Talovskaya 12 werden in der V. Periode der Organogenese (nach Kupermann) mit einer 1%igen wässrigen Emulsion von N-(2-Di- methylaminoäthyl)-maleaminsäure, N-(3-Dimethylaminopropyl)-maleaminsäure, N-Äthylmaleaminsäure, N-(2-Hydroxyäthyl)maleaminsäure, N-Karbamoylmaleaminsäure behandelt. Die Emulsion enthält 0,01 Masse% Dodezylsulfat und 0,1 Masse% Kalziumalkylbenzolsulfonat mit 12 bis _14 Kohlenstoffatomen. Der Verbrauch an Präparat beträgt 6 kg/ha. Als Kontrolle dienen Pflanzen, behandelt mit einem Verdünner ohne Sterilisationsmittel.

[6] = test system: Winterweizens Sorte Mir.onovskaya 808; assay: Field test of pollen sterilisation (gametocidal activity), winter wheat Mironovskaya 808; type: in vivo, Winterweizen; details: 2% aqueous emulsion, 20 kg/ha; for Prozentsatz der Sterilität / Anzahl von Körnern der Ähre bei freier Bestäubung / Anzahl von Körnern der Ähre im Isolator: period V of organogenesis; for Anzahl von Körnern der Ähre bei freier Bestäubung: free pollination; for Anzahl von Körnern der Ähre im Isolator: isolated ears; for Prozentsatz des Ansetzens von Körnern bei freier Bestäubung: period V, non-isolated control ears = 100%
Source text: Als Emulgierungsmittel wird 0,1 Masse% Kalziumalkylbenzolsulfonat mit 12 bis 14 Kohlenstoffatomen hinzugefügt. Als Adjuvans fährt man in die Emulsion 0,01 Masse% Dimethylsulfoxid ein. Der Verbrauch an Präparat beträgt 20 kg/ha. Als Kontrolle dienen Pflanzen, behandelt mit einem Verdünner ohne Sterilisationsmittel.

[7] = test system: diploidem Roggen Sorte Voskhod 2; assay: Field test of pollen sterilisation, diploid rye Voskhod 2; type: in vivo; details: 1% aqueous emulsion, 10 kg/ha; for Prozentsatz der Sterilität / Anzahl von Körnern der Ähre bei freier Bestäubung / Anzahl von Körnern der Ähre im Isolator: period V of organogenesis; for Anzahl von Körnern der Ähre bei freier Bestäubung: free pollination; for Anzahl von Körnern der Ähre im Isolator: isolated ears; for Prozentsatz des Ansetzens von Körnern bei freier Bestäubung: period V, non-isolated control ears = 100%
Source text: Die Emulsion enthält 0,1 Masse% Kalziumalkylbenzolsulfonat und 0,01 Masse% Dimethylformamid. Der Verbrauch an Präparat beträgt 10 kg/ha. Als Kontrolle dienen Pflanzen, behandelt mit einem Lösungsmittel ohne Sterilisationsmittel.

[8] = test system: tetraploidem Roggen Sorte Ukrainskaya tetra; assay: Field test of pollen sterilisation, tetraploid rye Ukrainskaya tetra; type: in vivo; details: 1% aqueous emulsion, 6 kg/ha; for Prozentsatz der Sterilität / Anzahl von Körnern der Ähre bei freier Bestäubung / Anzahl von Körnern der Ähre im Isolator: period V of organogenesis; for Anzahl von Körnern der Ähre bei freier Bestäubung: free pollination; for Anzahl von Körnern der Ähre im Isolator: isolated ears; for Prozentsatz des Ansetzens von Körnern bei freier Bestäubung: period V, non-isolated control ears = 100%
Source text: (§6) Jedes Sterilisationsmittel wurde mindestens 5 Jahre lang geprüft.
as §2, §3, §4, §5
Pflanzen von tetraploidem Roggen Sorte Ukrainskaya tetra werden in der V. Periode der Organogenese (nach Kupermann) mit einer 1%igen wässrigen Emulsion von N-(2-Dimethylaminoäthyl)maleaminsäure, N-(3-Dimethyl-aminopropu)maleaminsäure bzw. N-Karbamoylmaleaminsäure behandelt. Die Emulsion enthält 0,1 Masse% Kaliumalkylbenzolsulfonat mit 12 bis 14 Kohlenstoffatomen und 0,01 Masse% Dodezylsulfat. Der Verbrauch an Präparat beträgt 6 kg/ha. Als Kontrolle dienen Pflanzen, behandelt mit einem Verdünner ohne Sterilisationsmittel. Die Prüfergebnisse sind in der Tabelle 6 dargestellt.

[9] = test system: Sommerweizens Sorte Moskovskaya 35; assay: Field test of pollen sterilisation, spring wheat Moskovskaya 35; type: in vivo, Sommerweizen; details: 1% aqueous emulsion, 10 kg/ha; for Prozentsatz der Sterilität / Anzahl von Körnern der Ähre bei freier Bestäubung / Anzahl von Körnern der Ähre im Isolator: period V of organogenesis; for Anzahl von Körnern der Ähre bei freier Bestäubung: free pollination; for Anzahl von Körnern der Ähre im Isolator: isolated ears; for Prozentsatz des Ansetzens von Körnern bei freier Bestäubung: period V, non-isolated control ears = 100%
Source text: Pflanzen des Sommerweizens Sorte Moskovskaya 35 werden in V. Periode der Organogenese (nach Kupermann) mit einer 1%igen wässrigen Emulsion von N-(2-Dimethyl-aminoäthyl)-maleaminsäure, N-(3-Dimethylaminopropyl)-maleaminsäure, N-Äthylmaleaminsäure, N-(2-Hydroxyäthyl) maleaminsäure bzw. N-Karbamoylmaleaminsäure behandelt. Die Emulsion enthält 0,5 Masse% Kalziumalkylbenzolsulfonat mit 12 bis 14 Kohlenstoffatomen als Emulgierungsmittel und 0,01 Masse% Dimethylformamid als Adjuvans. Der Verbrauch an Präparat beträgt 10 kg/ha. Als Kontrolle dienen Pflanzen, behandelt mit einem Verdünner ohne Sterilisationsmittel.

[10] = Toxicity test in animals (LD50); details: in vivo; animal test, per kg animal weight; species and route not given
Source text: Alle erfindungsgemässen N-substituierten Maleaminsäuren, welche als Sterilisationsmittel zur Verwendung kommen, waren auf die Toxizität im Tierversuch geprüft. Die Prüfergebnisse haben ergeben, dass die angegebenen Verbindungen von schwacher oder mittlerer Toxizität sind.

[11] = test system: tetraploidem Roggen Sorte Belta; assay: Field test of pollen sterilisation, tetraploid rye Belta; type: in vivo; details: 1% aqueous emulsion, 10 kg/ha; for Prozentsatz der Sterilität / Anzahl von Körnern der Ähre bei freier Bestäubung / Anzahl von Körnern der Ähre im Isolator: period V of organogenesis; for Anzahl von Körnern der Ähre bei freier Bestäubung: free pollination; for Anzahl von Körnern der Ähre im Isolator: isolated ears; for Prozentsatz des Ansetzens von Körnern bei freier Bestäubung: period V, non-isolated control ears = 100%
Source text: as §1, §2, §3, §4, §5
Pflanzen von tetraploidem Roggen Sorte Belta werden in der V. Periode der Organogenese (nach Kupermann) mit einer 1%igen wässrigen Emulsion von N-(2-Dimethylamino- .äthyl)maleaminsäure, N-(3-Dimethylaminopropyl)maleaminsäure, N-Äthylmaleaminsäure, N-(2-Hydroxyäthyl)maleaminsäure bzw. Karbamoylmaleaminsäure behandelt. Die Emulsion enthält 0,5 Masse% Kalziumalkylbenzolsulfonat mit 12 bis 14 Kohlenstoffatomen und 0,01 Masso% Tetrahydrofuran. Der Verbrauch an Präparat beträgt 10 kg/ha. Die Prüfergebnisse sind in der Tabelle 5 dargestellt. […] Periode der Organogenese erhalten.

[12] = test system: Tritikale Sorte Prag 109; assay: Field test of pollen sterilisation, triticale Prag 109; type: in vivo; details: 2% aqueous emulsion, 12 kg/ha
Source text: as §6, §2, §3, §4, §5
V.Periode der Organogenese (nach Kupermann) mit einer 2%igen wässrigen Emulsion von N-(3-Dimethylaminopropyl) maleaminsäure, N-Karbamoylmaleaminsäure behandelt. Die Emulsion enthält 0,01 Masse% Tetrahydrofuran […] und 0,1 Masse% Kalziumalkylbenzolsulfonat mit 12 bis 14 Kohlensotffatomen. Der Verbrauch an Präparat beträgt 12 kg/ha. Als Kontrolle dienen Pflanzen, behandelt mit einem Verdünner ohne Sterilisationsmittel.

## CN(C)CCNC(=O)/C=C\C(=O)O [Beispiel 1, N-(2-Dimethylaminoäthyl)-maleaminsäure]
[1]
  Prozentsatz der Sterilität: 100,0%
  Anzahl von Körnern der Ähre bei freier Bestäubung: 39,7
  Anzahl von Körnern der Ähre im Isolator: 0,0
  Prozentsatz des Ansetzens von Körnern bei breier Bestäubung: 92,5%
[2]
  Prozentsatz der Sterilität: 99,6%
  Anzahl von Körnern der Ähre bei freier Bestäubung: 50,2
  Anzahl von Körnern der Ähre im Isolator: 0,2
  Prozentsatz des Ansetzens von Körnern bei freier Bestäubung: 88,4%
[3]
  Prozentsatz der Sterilität: 97,5%
  Anzahl von Körnern der Ähre bei freier Bestäubung: 29,8
  Anzahl von Körnern der Ähre im Isolator: 0,7
  Prozentsatz des Ansetzens von Körnern bei freier Bestäubung: 99,0%
[4]
  Prozentsatz der Sterilität: 100,0%
  Anzahl von Körnern der Rispe bei freier Bestäubung: 224,8
  Anzahl von Körnern der Rispe im Isolator: 0,0
  Prozentsatz des Ansetzens von Körnern bei freier Bestäubung: 98,9%
[5]
  Prozentsatz der Sterilität: 99,5%
  Anzahl von Körnern der Ähre bei freier Bestäubung: 51,2
  Anzahl von Körnern der Ähre im Isolator: 0,2
  Prozentsatz des Ansetzens von Körnern bei freier Bestäubung: 91,1%
[6]
  Prozentsatz der Sterilität: 99,8%
  Anzahl von Körnern der Ähre bei freier Bestäubung: 38,3
  Anzahl von Körnern der Ähre im Isolator: 0,1
  Prozentsatz des Ansetzens von Körnern bei freier Bestäubung: 89,9%
[7]
  Prozentsatz der Sterilität: 100,0%
  Anzahl von Körnern der Ähre bei freier Bestäubung: 51,2
  Anzahl von Körnern der Ähre im Isolator: 0,0
  Prozentsatz des Ansetzens von Körnern bei freier Bestäubung: 92,7%
[8]
  Prozentsatz der Sterilität: 100,0%
  Anzahl von Körnern der Ähre bei freier Bestäubung: 40,1
  Anzahl von Körnern der Ähre im Isolator: 0,0
  Prozentsatz des Ansetzens von Körnern bei freier Bestäubung: 89,5%
[9]
  Prozentsatz der Sterilität: 99,3%
  Anzahl von Körnern der Ähre bei freier Bestäubung: 26,8
  Anzahl von Körnern der Ähre im Isolator: 0,2
  Prozentsatz des Ansetzens von Körnern bei freier Bestäubung: 97,4%
[10]
  LD50: 2500 mg/kg
[11]
  Prozentsatz der Sterilität: 100,0%
  Anzahl von Körnern der Ähre bei freier Bestäubung: 48,2
  Anzahl von Körnern der Ähre im Isolator: 0,0
  Prozentsatz des Ansetzens von Körnern bei freier Bestäubung: 88,2%

## NC(=O)NC(=O)/C=C\C(=O)O [Beispiel 5, N-Karbamoylmaleaminsäure]
[12]; period V of organogenesis
  Prozentsatz der Sterilität: 100,0%
[12]; period V of organogenesis, free pollination
  Anzahl von Körnern der Ähre bei freier Bestäubung: 39,6
[12]; period V of organogenesis, isolated ears
  Anzahl von Körnern der Ähre im Isolator: 0,0
[12]; period V, non-isolated control ears = 100%
  Prozentsatz des Ansetzens von Körnern bei freier Bestäubung: 86,5%
[1]
  Prozentsatz der Sterilität: 97,8%
  Anzahl von Körnern der Ähre bei freier Bestäubung: 41,8
  Anzahl von Körnern der Ähre im Isolator: 0,7
  Prozentsatz des Ansetzens von Körnern bei breier Bestäubung: 97,4%
[2]
  Prozentsatz der Sterilität: 100,0%
  Anzahl von Körnern der Ähre bei freier Bestäubung: 48,7
  Anzahl von Körnern der Ähre im Isolator: 0,0
  Prozentsatz des Ansetzens von Körnern bei freier Bestäubung: 85,7%
[3]
  Prozentsatz der Sterilität: 100,0%
  Anzahl von Körnern der Ähre bei freier Bestäubung: 27,1
  Anzahl von Körnern der Ähre im Isolator: 0,0
  Prozentsatz des Ansetzens von Körnern bei freier Bestäubung: 90,0%
[4]
  Prozentsatz der Sterilität: 100,0%
  Anzahl von Körnern der Rispe bei freier Bestäubung: 198,2
  Anzahl von Körnern der Rispe im Isolator: 0,0
  Prozentsatz des Ansetzens von Körnern bei freier Bestäubung: 87,2%
[5]
  Prozentsatz der Sterilität: 100,0%
  Anzahl von Körnern der Ähre bei freier Bestäubung: 48,9
  Anzahl von Körnern der Ähre im Isolator: 0,0
  Prozentsatz des Ansetzens von Körnern bei freier Bestäubung: 87,0%
[6]
  Prozentsatz der Sterilität: 100,0%
  Anzahl von Körnern der Ähre bei freier Bestäubung: 40,0
  Anzahl von Körnern der Ähre im Isolator: 0,0
  Prozentsatz des Ansetzens von Körnern bei freier Bestäubung: 93,9%
[7]
  Prozentsatz der Sterilität: 98,2%
  Anzahl von Körnern der Ähre bei freier Bestäubung: 51,7
  Anzahl von Körnern der Ähre im Isolator: 0,9
  Prozentsatz des Ansetzens von Körnern bei freier Bestäubung: 93,7%
[8]
  Prozentsatz der Sterilität: 99,4%
  Anzahl von Körnern der Ähre bei freier Bestäubung: 44,0
  Anzahl von Körnern der Ähre im Isolator: 0,2
  Prozentsatz des Ansetzens von Körnern bei freier Bestäubung: 98,2%
[9]
  Prozentsatz der Sterilität: 100,0%
  Anzahl von Körnern der Ähre bei freier Bestäubung: 27,2
  Anzahl von Körnern der Ähre im Isolator: 0,0
  Prozentsatz des Ansetzens von Körnern bei freier Bestäubung: 98,9%
[10]
  LD50: 2000 mg/kg
[11]
  Prozentsatz der Sterilität: 100,0%
  Anzahl von Körnern der Ähre bei freier Bestäubung: 47,8
  Anzahl von Körnern der Ähre im Isolator: 0,0
  Prozentsatz des Ansetzens von Körnern bei freier Bestäubung: 87,2%
